Laboratory results published in PubChem BioAssay AID330 (DTP/NCI, 2004).
Values joined by “and” are separate entries in the source; they are usually repeats but may differ in a detail not shown here. Equal values may be shown once. Inconclusive results and toxic doses are left out. How the source made its calls: active means survival T/C of 150% or more; inactive means T/C below 125% in these data. Square brackets hold non-standard residues; d marks the D form. Peptide text beside a SMILES is read from it. * marks the point of attachment. Cbz = O=C(OCc1ccccc1)*; Nva = CCC[CH](N)C(=O)O

System: P388 leukemia ip, CD2F1 mice, survival T/C
Assay: NCI In Vivo Anticancer Drug Screen. Data for tumor model P388 Leukemia (intraperitoneal) in CD2F1 (CDF1) mice
Details: endpoint: median survival time, higher = longer survival
How it was run: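 Mice carrying the transplanted tumor received test compound or vehicle. Survival was recorded in each group, and the value is the treated-group measurement divided by that of the vehicle-treated control group.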

[1] = dose: 25.0 mg/kg/injection, schedule: Q01DX005 (ip), vehicle: saline with Tween-80
[2] = dose: 50.0 mg/kg/injection, schedule: Q01DX005 (ip), vehicle: saline with Tween-80
[3] = dose: 60.0 mg/kg/injection, schedule: Q01DX005 (ip), vehicle: saline with Tween-80
[4] = dose: 100.0 mg/kg/injection, schedule: Q01DX005 (ip), vehicle: saline with Tween-80
[5] = dose: 120.0 mg/kg/injection, schedule: Q01DX005 (ip), vehicle: saline with Tween-80
[6] = dose: 200.0 mg/kg/injection, schedule: Q01DX005 (ip), vehicle: saline with Tween-80
[7] = dose: 240.0 mg/kg/injection, schedule: Q01DX005 (ip), vehicle: saline with Tween-80
[8] = dose: 12.5 mg/kg/injection, schedule: Q01DX009 (ip), vehicle: saline with Tween-80
[9] = dose: 25.0 mg/kg/injection, schedule: Q01DX009 (ip), vehicle: saline with Tween-80
[10] = dose: 50.0 mg/kg/injection, schedule: Q01DX009 (ip), vehicle: saline with Tween-80
[11] = dose: 50.0 mg/kg/injection, schedule: Q04DX003 (ip), vehicle: saline
[12] = dose: 100.0 mg/kg/injection, schedule: Q04DX003 (ip), vehicle: saline
[13] = dose: 200.0 mg/kg/injection, schedule: Q04DX003 (ip), vehicle: saline
[14] = dose: 25.0 mg/kg/injection, schedule: Q04DX003 (ip), vehicle: saline with Tween-80
[15] = dose: 50.0 mg/kg/injection, schedule: Q01DX005 (ip), vehicle: Klucel (hydroxypropylcellulose) (HPC)
[16] = dose: 100.0 mg/kg/injection, schedule: Q01DX005 (ip), vehicle: Klucel (hydroxypropylcellulose) (HPC)
[17] = dose: 200.0 mg/kg/injection, schedule: Q01DX005 (ip), vehicle: Klucel (hydroxypropylcellulose) (HPC)
[18] = dose: 25.0 mg/kg/injection, schedule: Q01DX009 (ip), vehicle: saline
[19] = dose: 50.0 mg/kg/injection, schedule: Q01DX009 (ip), vehicle: saline
[20] = dose: 60.0 mg/kg/injection, schedule: Q01DX005 (ip), vehicle: Klucel (hydroxypropylcellulose) (HPC)
[21] = dose: 120.0 mg/kg/injection, schedule: Q01DX005 (ip), vehicle: Klucel (hydroxypropylcellulose) (HPC)
[22] = dose: 240.0 mg/kg/injection, schedule: Q01DX005 (ip), vehicle: Klucel (hydroxypropylcellulose) (HPC)

Measured: T/C

O=C1SCCC1n1c(=O)c1=O (configuration not stated)
inactive: [1] 100 % of control | [2] 98 % of control | [3] 94 % of control | [4] 105 % of control | [5] 99 % of control | [6] 96 % of control | [7] 90 % of control | dose: 400.0 mg/kg/injection, schedule: Q01DX005 (ip), vehicle: saline with Tween-80 99 % of control

CCCCCCC(=O)/C=C/c1ccc(OC(=O)c2ccc(OC)cc2)cc1
inactive: dose: 6.25 mg/kg/injection, schedule: Q01DX009 (ip), vehicle: saline with Tween-80 100 % of control | [8] 105 % of control | [9] 98 % of control | [10] 91 % of control | dose: 100.0 mg/kg/injection, schedule: Q01DX009 (ip), vehicle: saline with Tween-80 89 % of control

COc1cc(/C=C/C(=O)C(CN(C)C)CN(C)C)cc(OC)c1OC
inactive: dose: 6.25 mg/kg/injection, schedule: Q01DX005 (ip), vehicle: Klucel (hydroxypropylcellulose) (HPC) 100 % of control | dose: 12.5 mg/kg/injection, schedule: Q01DX005 (ip), vehicle: Klucel (hydroxypropylcellulose) (HPC) 103 % of control

OCCC1CC2CCCCN2O1 (configuration not stated)
inactive: [11] 101 % of control | [12] 103 % of control | [13] 102 % of control

Nc1ncnc(N)c1N=O
inactive: dose: 50.0 mg/kg/injection, schedule: Q04DX003 (ip), vehicle: saline with Tween-80 100 % of control | dose: 100.0 mg/kg/injection, schedule: Q04DX003 (ip), vehicle: saline with Tween-80 104 % of control | dose: 200.0 mg/kg/injection, schedule: Q04DX003 (ip), vehicle: saline with Tween-80 100 % of control

O=[N+]([O-])c1cccc(/C=C/S(=O)(=O)Cc2ccccc2)c1
inactive: [2] 101 % of control | [4] 100 % of control | [6] 92 % of control

CC(=N/NC(=S)NCCN1CCCCC1)/C(C)=N\NC(=S)NCCN1CCCCC1
inactive: dose: 0.78 mg/kg/injection, schedule: Q01DX009 (ip), vehicle: saline 106 % of control | dose: 1.56 mg/kg/injection, schedule: Q01DX009 (ip), vehicle: saline 94 % of control | dose: 3.13 mg/kg/injection, schedule: Q01DX009 (ip), vehicle: saline 97 % of control | dose: 6.25 mg/kg/injection, schedule: Q01DX009 (ip), vehicle: saline 103 % of control | dose: 12.5 mg/kg/injection, schedule: Q04DX003 (ip), vehicle: saline with Tween-80 108 % of control | [14] 101 % of control

CCOc1c(N=Nc2cccc([N+](=O)[O-])c2)c(C)nn1C(N)=S
inactive: dose: 15.0 mg/kg/injection, schedule: Q01DX005 (ip), vehicle: Klucel + Tween-80 92 % of control | dose: 30.0 mg/kg/injection, schedule: Q01DX005 (ip), vehicle: Klucel + Tween-80 94 % of control

COc1ccccc1C1=[N+]([O-])C(C)(C)C(c2ccccc2)C1 (configuration not stated)
inactive: dose: 100.0 mg/kg/injection, schedule: Q04DX002 (ip), vehicle: Klucel (hydroxypropylcellulose) (HPC) 104 % of control | dose: 200.0 mg/kg/injection, schedule: Q04DX002 (ip), vehicle: Klucel (hydroxypropylcellulose) (HPC) 102 % of control

CN1CCCSC1=S
inactive: dose: 6.25 mg/kg/injection, schedule: Q01DX009 (ip), vehicle: Klucel (hydroxypropylcellulose) (HPC) 111 % of control | dose: 12.5 mg/kg/injection, schedule: Q01DX009 (ip), vehicle: Klucel (hydroxypropylcellulose) (HPC) 97 % of control | dose: 25.0 mg/kg/injection, schedule: Q01DX009 (ip), vehicle: Klucel (hydroxypropylcellulose) (HPC) 106 % of control

CN=C(NC)c1ccc(NC(=O)/C=C/C(=O)Nc2ccc(C(=NC)NC)cc2)cc1
inactive: dose: 12.5 mg/kg/injection, schedule: Q01DX005 (ip), vehicle: saline with Tween-80 101 % of control | [1] 99 % of control | [2] 98 % of control and 103 % of control

O=C(NCCCC(CCCNC(=O)c1ccccc1)(C(=O)O)C(=O)O)c1ccccc1
inactive: [15] 106 % of control | [16] 109 % of control | [17] 104 % of control

O=C1c2ccc[n+]3c2-c2c1ccc[n+]2CC3
inactive: dose: 12.5 mg/kg/injection, schedule: Q01DX001 (ip), vehicle: saline 108 % of control | dose: 25.0 mg/kg/injection, schedule: Q01DX001 (ip), vehicle: saline 115 % of control | dose: 50.0 mg/kg/injection, schedule: Q01DX001 (ip), vehicle: saline 101 % of control

O=c1[nH]c(CN2CCCCC2)ccc1O
inactive: [18] 105 % of control and 109 % of control | [19] 99 % of control and 105 % of control | dose: 100.0 mg/kg/injection, schedule: Q01DX009 (ip), vehicle: saline 106 % of control and 109 % of control | dose: 200.0 mg/kg/injection, schedule: Q01DX009 (ip), vehicle: saline 117 % of control and 118 % of control

O=C(O)c1ccc[nH]c1=O
inactive: dose: 25.0 mg/kg/injection, schedule: Q04DX003 (ip), vehicle: saline 98 % of control | [11] 112 % of control | [12] 99 % of control | [13] 93 % of control

C[C@H]1C(=O)OCN1C(=O)OCc1ccccc1
inactive: [3] 100 % of control | [5] 100 % of control | [7] 95 % of control

Cc1cc(N/N=C/c2ccc(N(CCCl)CCCl)cc2)c2cc3c(cc2n1)OCO3
inactive: [14] 111 % of control

Cc1cc(N(CCO)CCO)c(OCc2ccccc2)c(N(CCO)CCO)c1
inactive: [20] 99 % of control | [21] 100 % of control | [22] 98 % of control

CC(=O)N(c1nc2ccccc2s1)N1C(=O)c2ccccc2C1=O
inactive: [20] 98 % of control | [21] 94 % of control | [22] 90 % of control

CCCC(NC(=O)OCc1ccccc1)C(=O)NC(C(=O)O)C(C)CC (configuration not stated) (Cbz-[Nva]-Ile-OH; configuration not given here)
inactive: [15] 100 % of control | [16] 100 % of control | [17] 101 % of control

O=C(Oc1c(F)c(F)c(F)c(F)c1F)N(CCCl)CCCl
inactive: dose: 100.0 mg/kg/injection, schedule: Q01DX001 (ip), vehicle: Klucel (hydroxypropylcellulose) (HPC) 101 % of control | dose: 200.0 mg/kg/injection, schedule: Q01DX001 (ip), vehicle: Klucel (hydroxypropylcellulose) (HPC) 104 % of control | dose: 400.0 mg/kg/injection, schedule: Q01DX001 (ip), vehicle: Klucel (hydroxypropylcellulose) (HPC) 94 % of control

O=C(OC1(c2nccc3ccccc23)CCN(Cc2ccccc2)CC1)c1ccccc1
inactive: dose: 12.5 mg/kg/injection, schedule: Q01DX009 (ip), vehicle: saline 100 % of control | [18] 101 % of control | [10] 93 % of control | [19] 97 % of control

C(=NCCN=CC1CCCC[N-]1)C1CCCC[N-]1.[Cu+2].[O-][Cl+3]([O-])([O-])O (configuration not stated)
inactive: [8] 115 % of control | [9] 98 % of control

CCn1c(=O)c2[nH]c(=S)[nH]c2n(CC)c1=O
inactive: dose: 16.0 mg/kg/injection, schedule: Q01DX009 (ip), vehicle: Klucel (hydroxypropylcellulose) (HPC) 108 % of control | dose: 32.0 mg/kg/injection, schedule: Q01DX009 (ip), vehicle: Klucel (hydroxypropylcellulose) (HPC) 104 % of control | dose: 50.0 mg/kg/injection, schedule: Q01DX009 (ip), vehicle: Klucel (hydroxypropylcellulose) (HPC) 105 % of control | dose: 64.0 mg/kg/injection, schedule: Q01DX009 (ip), vehicle: Klucel (hydroxypropylcellulose) (HPC) 107 % of control | dose: 100.0 mg/kg/injection, schedule: Q01DX009 (ip), vehicle: Klucel (hydroxypropylcellulose) (HPC) 95 % of control | dose: 200.0 mg/kg/injection, schedule: Q01DX009 (ip), vehicle: Klucel (hydroxypropylcellulose) (HPC) 102 % of control
